According to the supplement of paper PMC4862054:

What was measured:
Conditions in all cases: incubation time: 72 h
[1] = test system: MCF-10A; test: normalised response (% of control), CellTox Green; higher = less cell death (100 = DMSO, 0 = benzethonium chloride kill control)
Summary of the method: (§1)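 Breast cancer cell lines, seeded at 20 µl suspension per well, were incubated for 72 h in 384-well plates containing compound at 5 concentrations. These concentrations rose in 10-fold steps over a 10,000-fold range set for each compound. CellTox Green fluorescence (485/520 nm) was read, then CellTiter-Glo luminescence after 10 min at room temperature, and each plate was normalised to 0.1 % DMSO (100) and a positive kill control (0). Values are normalised signals, each at one concentration.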

[2] = test system: MDA-MB-453; test: as above
Summary of the method: as §1

[3] = test system: MDA-MB-468; test: as above
Summary of the method: as §1

[4] = test system: HCC1937; test: as above
Summary of the method: as §1

[5] = test system: HCC1143; test: as above
Summary of the method: as §1

[6] = test system: DU-4475; test: as above
Summary of the method: as §1

[7] = test system: HCC1599; test: as above
Summary of the method: as §1

[8] = test system: CAL-85-1; test: as above
Summary of the method: as §1

[9] = test system: MDA-MB-231; test: as above
Summary of the method: as §1

[10] = test system: BT-474; test: as above
Summary of the method: as §1

[11] = test system: CAL-51; test: as above
Summary of the method: as §1

[12] = test system: MDA-MB-436; test: as above
Summary of the method: as §1

[13] = test system: CAL-148; test: as above
Summary of the method: as §1

[14] = test system: Hs578T; test: as above
Summary of the method: as §1

[15] = test system: CAL-120; test: as above
Summary of the method: as §1

[16] = test system: BT-549; test: as above
Summary of the method: as §1

[17] = test system: MFM-223; test: as above
Summary of the method: as §1

[18] = test system: MCF-10A; test: normalised response (% of control), CellTiter-Glo; higher = more viable cells (100 = DMSO, 0 = benzethonium chloride kill control)
Summary of the method: as §1

[19] = test system: HDQ-P1; test: as above
Summary of the method: as §1

[20] = test system: MDA-MB-453; test: as above
Summary of the method: as §1

[21] = test system: MDA-MB-468; test: as above
Summary of the method: as §1

[22] = test system: HCC1937; test: as above
Summary of the method: as §1

[23] = test system: HCC1143; test: as above
Summary of the method: as §1

[24] = test system: DU-4475; test: as above
Summary of the method: as §1

[25] = test system: HCC1599; test: as above
Summary of the method: as §1

[26] = test system: CAL-85-1; test: as above
Summary of the method: as §1

[27] = test system: MDA-MB-231; test: as above
Summary of the method: as §1

[28] = test system: BT-474; test: as above
Summary of the method: as §1

[29] = test system: CAL-51; test: as above
Summary of the method: as §1

[30] = test system: SK-BR-3; test: as above
Summary of the method: as §1

[31] = test system: MDA-MB-436; test: as above
Summary of the method: as §1

[32] = test system: CAL-148; test: as above
Summary of the method: as §1

[33] = test system: Hs578T; test: as above
Summary of the method: as §1

[34] = test system: CAL-120; test: as above
Summary of the method: as §1

[35] = test system: BT-549; test: as above
Summary of the method: as §1

[36] = test system: MFM-223; test: as above
Summary of the method: as §1

[37] = test system: HDQ-P1; test: normalised response (% of control), CellTox Green; higher = less cell death (100 = DMSO, 0 = benzethonium chloride kill control)
Summary of the method: as §1

SMILES	normalised response [1] [%]	normalised response [2] [%]	normalised response [3] [%]	normalised response [4] [%]	normalised response [5] [%]	normalised response [6] [%]	normalised response [7] [%]	normalised response [8] [%]	normalised response [9] [%]	normalised response [10] [%]	normalised response [11] [%]	normalised response [12] [%]	normalised response [13] [%]	normalised response [14] [%]	normalised response [15] [%]	normalised response [16] [%]	normalised response [17] [%]	normalised response [18] [%]	normalised response [19] [%]	normalised response [20] [%]	normalised response [21] [%]	normalised response [22] [%]	normalised response [23] [%]	normalised response [24] [%]	normalised response [25] [%]	normalised response [26] [%]	normalised response [27] [%]	normalised response [28] [%]	normalised response [29] [%]	normalised response [30] [%]	normalised response [31] [%]	normalised response [32] [%]	normalised response [33] [%]	normalised response [34] [%]	normalised response [35] [%]	normalised response [36] [%]	normalised response [37] [%]
CCc1cncnc1N1CCN(Cc2nc3ccc(C(F)(F)F)cc3[nH]2)CC1 (1000 nM)	111	94.2	114	111	79.2	104	97.5	106	98.9	102	97	84.2	100	100	98.6	109	101	103	103	94.8	90.3	91.1	102	93.4	98.8	97.7	99.4	96.7	67	112	106	103	98.5	98.1	83.6	106	–
CC[C@@H]1C(=O)N(C)c2cnc(Nc3ccc(C(=O)NC4CCN(C)CC4)cc3OC)nc2N1C1CCCC1 [BI 2536] (100 nM)	36.6	103	73.3	113	79.2	98.5	91.7	71.5	24.3	100	49.6	82.5	97.7	82	87.1	93	70.5	60.3	84	86.5	47.9	86.7	47.5	63.3	37.9	81.7	51	55.9	21.9	17.6	53.1	68.1	38.8	63.4	23.6	49.1	–
O=C(O)CCCCC(CCSCc1ccccc1)SCc1ccccc1 (stereo not given) [CPI-613] (1000 nM)	92.8	103	114	117	58.7	100	95.5	96.8	109	98.6	111	81.4	94.6	103	102	92.6	98.7	103	102	103	108	101	102	99.1	108	97.1	102	98.5	114	100	99.5	100	106	98.1	102	108	–
COc1cc2c(Oc3ccc4[nH]c(C)cc4c3F)ncnc2cc1OCCCN1CCCC1 [Cediranib] (100 nM)	98.1	105	98.6	123	112	98.4	102	91.2	113	104	109	90.2	106	97.6	96.8	126	84.1	95.4	102	102	111	98.1	97.3	97.3	98	100	103	104	107	103	106	103	104	103	108	97.9	–
Cc1ccc(-c2cc(C(F)(F)F)nn2-c2ccc(S(N)(=O)=O)cc2)cc1 [Celecoxib] (1000 nM)	81.4	105	121	111	104	101	99.1	104	106	101	117	105	104	–	101	115	96	112	100	99	99.8	109	99.9	94	99.6	93.3	96.4	100	118	101	101	91.3	107	98.1	107	100	112
Nc1ncn([C@H]2C[C@H](O)[C@@H](CO)O2)c(=O)n1 [Decitabine] (1000 nM)	78.9	84.1	115	110	80.5	97.4	101	89.9	121	98.6	77.8	100	103	112	93.6	116	93.6	93.5	93.2	112	26.2	87.9	90.4	90.1	103	105	98.4	90.3	83.6	85.5	97.3	83.5	93	91.7	77.8	96.5	–
CC[C@H](Nc1ncnc2[nH]cnc12)c1nc2cccc(F)c2c(=O)n1-c1ccccc1 [GS-1101] (1000 nM)	112	107	88.1	–	97.4	96.9	93.7	94.1	84.2	98.7	88.6	–	80.2	93.8	96.9	105	101	78.9	87.7	89.6	86.9	94.9	84.9	92.3	110	93.2	85.5	84.6	97.3	79.6	85.3	97.7	100	89.9	82.8	90.3	106
COc1cc2c(NC3CCN(C(C)C)CC3)nc(C3CCCCC3)nc2cc1OCCCN1CCCC1 [UNC0638] (1000 nM)	104	95.8	143	92.1	–	91.6	89.1	94.4	81.7	91.6	78.5	92.5	93	92.6	100	81.2	95.7	76.7	95.6	90.6	78.8	89.9	93.3	92.1	82.1	106	92	92.4	71.4	84.6	91.3	88.9	103	92.8	91.6	83.6	–
CCCS(=O)(=O)Nc1ccc(F)c(C(=O)c2c[nH]c3ncc(-c4ccc(Cl)cc4)cc23)c1F [Vemurafenib] (10 nM)	–	–	–	–	–	–	–	–	–	–	–	–	–	–	–	–	–	89.2	94.9	87.6	88.2	98.8	97.6	93.2	99.6	90.9	91.3	95.5	109	71.8	88.7	87.8	95.8	95.2	91.2	89.8	–
